Measured values reported in publication PMC8696196 (RSC Advances, 2021).

Biological target: H3N2 E119V (A/Moscow/10/99 background, E119V mutation in the neuraminidase gene)
Type: cell-based, influenza A virus
Details: read-out: EC50 H3N2 E119V

CCC(CC)O[C@@H]1C=C(C(=O)O)C[C@H](n2nncc2-c2cccc(N)c2)[C@H]1NC(C)=O [Compound 2j, (3R,4R,5S)-4-Acetamido-5-[5-(3-aminophenyl)-1H-1,2,3-triazol-1-yl]-3-(pentan-3-yloxy)cyclohex-1-ene-1-carboxylic acid] was tested, and the EC50 was over 100 µM.
Work on CCC(CC)O[C@@H]1C=C(C(=O)O)C[C@H](N)[C@H]1NC(C)=O [OSC, oseltamivir carboxylate, reference compound] yielded an EC50 of over 100 µM.
